Experimental findings from patent US6656714B2, “Nucleic acids and proteins of a rat ganglioside GM1-specific α1→2 fucosyltransferase and uses thereof” (Northwest Hospital, priority 1999, dated 2003) are described below.

The target in experiment [1] is T1, full length rat hepatoma α1→2FucT (Rattus norvegicus, UniProt Q10984).
T1 construct: Full length α1→2FucT cDNA was then cloned into pcDNA 3 vector; expressed in transfected cells; host or cells: COS-7 cells, transient transfection, sonicated homogenate
T1 sequence (Q10984 1-380 isoform Q10984-2): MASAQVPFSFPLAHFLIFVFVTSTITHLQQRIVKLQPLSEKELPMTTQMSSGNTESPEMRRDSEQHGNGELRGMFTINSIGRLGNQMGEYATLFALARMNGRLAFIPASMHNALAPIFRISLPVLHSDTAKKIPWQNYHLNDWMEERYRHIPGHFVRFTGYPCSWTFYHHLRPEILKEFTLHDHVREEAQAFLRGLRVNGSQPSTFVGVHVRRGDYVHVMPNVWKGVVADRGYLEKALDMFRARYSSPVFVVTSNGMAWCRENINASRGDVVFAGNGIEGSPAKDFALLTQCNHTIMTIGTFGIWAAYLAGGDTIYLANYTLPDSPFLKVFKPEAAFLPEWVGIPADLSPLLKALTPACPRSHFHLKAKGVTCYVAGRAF
Put plainly: Enzyme assay of expressed recombinant full length α1→2FucT in homogenates of transfected COS-7 cells, transfer of [14C]fucose to GM1 (TLC). The class given is biochemical. The settings on record: for transfer to GM1 in the presence of additive, compared with no detergent or phospholipid: CHAPSO 100 μg, phosphatidylglycerol 250 μg. The source says:
Expression of full length α1→2FucT cDNA in transfected cells results in membrane-bound enzyme. COS-7 cells were transiently transfected by the DEAE-dextran method (Ausubel, F. M., et al., Current Protocols in Molecular Biology, Wiley, N.Y.) with either FL-RFT-pcDNA3 or FL-RFT(−)-pcDNA3. Four to five days later, the cells were harvested, sonicated in HEPES, glycerol, DTE buffer and assayed for enzyme activity as described previously (Sherwood, A. L., et al., 1998, Arch. Biochem. Biophys. 355:215-221).

For experiment [2], the target named is T2, catalytic domain of rat hepatoma H35 cell α1→2FucT (Rattus norvegicus, UniProt Q10984).
T2 construct: made in house; host or cells: COS-7 cells (secreted fusion protein, captured on IgG-agarose)
T2 sequence (Q10984 28-380 isoform Q10984-2): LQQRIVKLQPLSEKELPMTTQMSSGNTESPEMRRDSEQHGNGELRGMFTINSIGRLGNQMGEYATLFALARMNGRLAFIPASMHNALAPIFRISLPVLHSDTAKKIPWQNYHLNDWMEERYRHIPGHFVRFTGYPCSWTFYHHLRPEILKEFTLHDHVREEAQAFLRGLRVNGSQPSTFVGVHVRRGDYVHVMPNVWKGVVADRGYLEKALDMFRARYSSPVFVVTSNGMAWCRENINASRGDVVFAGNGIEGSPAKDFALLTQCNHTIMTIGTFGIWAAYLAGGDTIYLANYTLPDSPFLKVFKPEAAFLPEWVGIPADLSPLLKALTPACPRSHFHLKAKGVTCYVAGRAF
Put plainly: α1→2Fucosyltransferase assay, pPROTA-expressed catalytic domain on IgG-agarose beads, transfer of [14C]fucose to glycolipid acceptors (TLC). The class given is biochemical. The conditions noted are these: 30 μg acceptor, 2 h at 37° C., 250 μg phosphatidylglycerol, GDP-[14C]fucose. Here is the method: For example, as illustrated in Section 6.3.2, infra, the activity of α1→2fucosyltransferase coupled to the IgG-binding domain of Protein A can be determined in reaction mixtures containing 2.5 μmol of HEPES buffer, pH7.2, 30 μg of GM1. ganglioside or nLc4, 250 μg phosphatidylglycerol, 1 μmol of MnCl2, 0.5 μmol of CDP-choline, 15 nmol of GDP-[^14C]fucose (15,000 cpm/nmol), and bound to IgG-agarose beads in a total volume of 0.1 ml. The reaction mixtures are incubated for 2 h at 37° C., terminated by the addition of 0.1 ml of CHCl3:CH3OH (2:1), streaked onto 4-cm-wide strips of Whatman 3 paper and developed with water overnight. The papers are dried and the labeled product extracted from the origins with 2- to 5-ml washes of CHCl3:CH3OH:H2O (10:5:1). The combined eluates are concentrated to dryness by an N2 stream and dissolved in 20 μl of CHCl3:CH3OH (2:1). A 10-μl aliquot of each is spotted onto a HP-TLC plate (Merck)and developed in a solvent system composed of CHCl3:CH3OH:H2O (60:40:9), 0.02% CaCl2.2H2O. […]
α1→2Fucosyltransferase activity was determined in reaction mixtures containing 2.5 μmol of HEPES buffer, pH7.2, 30 μg of GM1 ganglioside or nLc4, 250 μg phosphatidylglycerol, 1 μmol of MnCl2, 0.5 μmol of CDP-choline, 15 nmol of GDP-[^14C]fucose (15,000 cpm/nmol), and pPROTA-expressed enzyme bound to IgG-agarose beads in a total volume of 0.1 ml. […]

A further experiment deals with α1→2FucT. Kind of experiment: α1→2FucT enzyme activity in liver of AAF-fed rats. The experiment is classed as in vivo. The conditions noted are these: AAF-fed rat liver sample; none detected in normal liver.
In experiment [3] the target is T3, recombinant rat α1→2fucosyltransferase (Rattus norvegicus, UniProt Q10984).
T3 construct: Full length α1→2FucT cDNA was then cloned into pcDNA 3 vector; expressed in transfected cells; host or cells: COS-7 cells, transient transfection, sonicated homogenate
T3 sequence (Q10984 1-380 isoform Q10984-2): T1 sequence (Q10984 1-380 isoform Q10984-2)
Kind of experiment: Preparative in vitro biosynthesis of fucosyl-GM1 with homogenate of COS-7 cells expressing rat α1→2fucosyltransferase (HPTLC). The experiment is classed as biochemical. The settings on record: 0.5 mg GM1, 2 mg crude cell homogenate, after 24 to 48 hours. Here is the method:
Preparative biosynthesis of fucosyl-GM1 was conducted in reaction mixtures composed of 25 μmol of HEPES buffer, pH 7.2, 10 μmol of MnCl2, 500 μg CHAPSO, 0.5 mg GM1, and 2 mg crude cell homogenate of COS-7 cells transiently transfected with plasmid containing the entire rat α1→2fucosyltransferase coding sequence in a total volume of 0.5 ml. Progress of the reaction was followed with time by withdrawing 2 μl of the reaction mixture and spotting it on an HPTLC plate. The plate was developed in a solvent system composed of CHCL3:CH3OH:H2O, 60:40:9, containing 0.02% CaCl2. Glycolipid bands were determined by orcinol spray (FIG. 9).

Take `C[C@H](CCC(=O)NCCC[N+](C)(C)CC(O)CS(=O)(=O)[O-])[C@H]1CC[C@H]2[C@@H]3[C@H](O)C[C@@H]4C[C@H](O)CC[C@]4(C)[C@H]3C[C@H](O)[C@]12C` (stereo partly shown) [CHAPSO]: in experiment [1], the “transfer to GM1 in the presence of additive, compared with no detergent or phospholipid” value is recorded as “Comparable transfer”.

As to lactoneotetraosylceramide [nLcOse4Cer], in experiment [2], the “transfer of fucose to acceptor” value was “No detectable transfer”. As to phosphatidylglycerol, in experiment [1], the “transfer to GM1 in the presence of additive, compared with no detergent or phospholipid” value was “Somewhat less transfer”. On to `CC(=O)Nc1ccc2c(c1)Cc1ccccc1-2` [AAF, N-2-acetylaminofluorene], for which the “α1→2FucT enzyme activity in liver” value in the experiment on α1→2FucT is “moderate level”.

Consider II^3NeuAcGg4 [GM1], for which the “transfer of fucose to acceptor” value in experiment [2] is reported as “transfer fucose to GM1”. In addition, the “transfer of fucose to GM1 by full length enzyme” value in experiment [1] (two hours at 37° C.) was “transfers fucose to GM1 with high efficiency”. For the same compound, the “conversion of GM1 to fucosyl-GM1” value in experiment [3] was “almost complete conversion”.
